Laboratory results published in ChEMBL document CHEMBL3784972, “Optimization of N'-(arylsulfonyl)pyrazoline-1-carboxamidines by exploiting a novel interaction site in the 5-HT6 antagonistic binding pocket” (Bioorg Med Chem Lett, 2016).

How the values were obtained:
[1] = target: T1, 5-hydroxytryptamine receptor 6 (Homo sapiens, UniProt P50406); assay: Displacement of [3H]-N-Methyl-Lysergic acid diethylamide from human 5-HT6 receptor expressed in CHO cells after 30 mins by liquid scintillation counting analysis; type: cell-based
T1 sequence (P50406 whole entry): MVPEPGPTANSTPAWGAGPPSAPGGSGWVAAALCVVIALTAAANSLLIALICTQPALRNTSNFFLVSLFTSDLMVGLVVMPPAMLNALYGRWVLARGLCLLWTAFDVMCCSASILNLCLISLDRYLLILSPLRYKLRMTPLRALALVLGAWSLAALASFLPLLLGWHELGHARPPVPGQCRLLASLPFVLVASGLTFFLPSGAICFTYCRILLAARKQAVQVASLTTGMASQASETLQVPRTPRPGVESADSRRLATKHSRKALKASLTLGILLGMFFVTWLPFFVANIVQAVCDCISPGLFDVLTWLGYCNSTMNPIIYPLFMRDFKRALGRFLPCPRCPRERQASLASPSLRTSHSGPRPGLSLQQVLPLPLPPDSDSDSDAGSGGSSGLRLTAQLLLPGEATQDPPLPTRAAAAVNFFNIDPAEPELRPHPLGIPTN

[2] = target: T1, 5-hydroxytryptamine receptor 6; assay: Antagonist activity at human recombinant 5-HT6 receptor expressed in CHO cells assessed as inhibition of agonist induced intracellular calcium levels by aequorin assay; type: functional, cell-based; settings: read-out: pA2 (converted)
[3] = system: LLC-PK1; settings: pig
Description: Permeability across pig LLC-PK1 cells expressing MDR assessed as membrane passage at 1 ug/ml after 3 hrs by LC/MS analysis

[4] = system: MDR; assay: in vitro; settings: pig, LLC-PK1
Description: Permeability across pig LLC-PK1 cells expressing MDR assessed as ratio of bottom to top transport over top to bottom transport at 1 ug/ml after 3 hrs by LC/MS analysis

[5] = in vitro; settings: Sprague Dawley, rat, hepatocytes
[6] = in vitro; settings: human, hepatocytes
[7] = target: Voltage-gated inwardly rectifying potassium channel KCNH2 (Homo sapiens, UniProt Q12809); assay: Inhibition of human ERG
Voltage-gated inwardly rectifying potassium channel KCNH2, sequence (Q12809 whole entry): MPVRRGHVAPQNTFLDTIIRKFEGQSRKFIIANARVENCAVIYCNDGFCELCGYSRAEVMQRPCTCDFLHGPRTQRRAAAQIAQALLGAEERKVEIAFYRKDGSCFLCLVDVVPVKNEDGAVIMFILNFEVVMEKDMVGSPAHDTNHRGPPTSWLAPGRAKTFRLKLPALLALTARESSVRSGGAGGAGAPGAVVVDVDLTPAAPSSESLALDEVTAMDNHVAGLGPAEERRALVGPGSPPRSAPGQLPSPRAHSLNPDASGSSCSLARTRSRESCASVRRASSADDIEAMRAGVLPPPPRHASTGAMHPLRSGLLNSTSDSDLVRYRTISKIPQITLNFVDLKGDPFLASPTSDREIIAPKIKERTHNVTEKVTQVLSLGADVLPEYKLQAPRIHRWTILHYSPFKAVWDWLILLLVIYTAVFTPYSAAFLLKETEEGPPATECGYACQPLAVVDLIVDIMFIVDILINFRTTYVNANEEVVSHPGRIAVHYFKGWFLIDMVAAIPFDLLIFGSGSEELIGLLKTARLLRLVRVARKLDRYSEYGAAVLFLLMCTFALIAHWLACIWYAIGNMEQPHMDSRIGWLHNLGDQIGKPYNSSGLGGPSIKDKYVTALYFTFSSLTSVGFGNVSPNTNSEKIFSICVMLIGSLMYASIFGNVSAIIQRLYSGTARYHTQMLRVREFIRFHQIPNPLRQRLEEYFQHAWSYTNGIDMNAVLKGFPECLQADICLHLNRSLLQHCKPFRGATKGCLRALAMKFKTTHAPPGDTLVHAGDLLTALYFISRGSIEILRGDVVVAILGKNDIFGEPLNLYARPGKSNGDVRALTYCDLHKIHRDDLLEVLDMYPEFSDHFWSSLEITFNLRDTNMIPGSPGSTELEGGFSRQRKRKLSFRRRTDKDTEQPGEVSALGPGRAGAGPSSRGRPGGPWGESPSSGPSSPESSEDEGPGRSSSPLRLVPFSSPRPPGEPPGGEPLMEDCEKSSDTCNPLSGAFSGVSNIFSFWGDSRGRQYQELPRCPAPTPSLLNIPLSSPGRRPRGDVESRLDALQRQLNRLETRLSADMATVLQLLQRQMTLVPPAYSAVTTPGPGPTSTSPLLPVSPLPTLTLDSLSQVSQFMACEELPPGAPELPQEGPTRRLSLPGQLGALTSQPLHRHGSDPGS

[8] = target: Dopamine receptor; assay: Binding affinity to dopamine receptor (unknown origin); type: protein assay, Homo sapiens
[9] = target: Cannabinoid receptor (Homo sapiens, UniProt P34972+P21554); assay: Binding affinity to Cannabinoid receptor (unknown origin); type: protein assay
[10] = Binding affinity to Muscarinic receptor (unknown origin); design: species or system Homo sapiens
[11] = Binding affinity to alpha adrenergic receptor (unknown origin); design: species or system Homo sapiens
[12] = Lipophilicity, log D of the compound at pH 7; type: physicochemical; settings: buffer
[13] = Tmax in rat plasma at 10 mg/kg, po; type: ADME, organism-based
[14] = Tmax in rat CNS at 10 mg/kg, po; type: ADME, organism-based
[15] = Clearance in rat at 10 mg/kg, po; type: ADME, organism-based; settings: in vivo
[16] = Oral bioavailability in rat at 10 mg/kg; type: ADME, organism-based; settings: in vivo
[17] = Ratio of drug uptake in rat CNS to plasma at 10 mg/kg, po; type: ADME, organism-based
[18] = Fraction unbound in rat brain at 10 mg/kg, po; type: ADME, organism-based
[19] = system: Rattus norvegicus; assay: Inhibition of cognitive impairment in po dosed rat administered 0.5 hrs before testing; type: functional
[20] = Cmax in rat plasma at 20 mg/kg, po; type: ADME, organism-based; design: dose 20 mg/kg, route oral
[21] = target: Serotonin (5-HT) receptor; assay: Binding affinity to 5-HT receptor (unknown origin); type: protein assay, Homo sapiens

SMILES	Ki [1] [nM]	Kb [2] [nM]	permeability ([3]; llc-pk1, 3 h, at 1 µg/mL) [%]	efflux ratio at 3 h, 1 ug/ml [4]	hepatocyte CLint [5] [µL/min/1e6 cells]	hepatocyte CLint [6] [µL/min/1e6 cells]	further results
CCN/C(=N\S(=O)(=O)c1ccc(N(C)C)cc1)N1CC(CC)C=N1 (stereo not given)	206	> 1000	38.2	1.4	–	–	–
CCN/C(=N\S(=O)(=O)c1cccc(Cl)c1)N1N=CCC1c1ccccc1 (stereo not given)	–	–	–	–	–	–	permeability ([3]; LLC-PK1, 3 h): 38.5%
CCN/C(=N\S(=O)(=O)c1cccc(O)c1)N1CC2(C=N1)CCCC2	18.5	7.94	40.7	1.1	–	–	–
CCN/C(=N\S(=O)(=O)c1ccc2[nH]ncc2c1)N1CC2(C=N1)CCCC2	28.6	12.6	–	–	99	19	–
CCN/C(=N\S(=O)(=O)c1cccc(Cl)c1)N1N=CCC1c1ccc(N)cc1 (stereo not given)	> 1000	1580	36.2	2.7	–	–	–
CCN/C(=N\S(=O)(=O)c1ccc2cc[nH]c2c1)N1CC(CC)C=N1 (stereo not given)	31.6	79.4	37.7	2.8	–	–	–
CCN/C(=N\S(=O)(=O)c1ccc(N)cc1)N1CC2(C=N1)CCCC2	–	3.98	35.1	2.9	33	8	IC50 [7]: > 10000 nM; Ki [8]: > 1000 nM; Ki [9]: > 1000 nM; Ki [10]: > 1000 nM; Ki [11]: > 1000 nM; logD [12]: 1; Tmax [13]: 30 min; Tmax [14]: 30 min; CL/F [15]: 26 mL/min/kg; bioavailability [16]: 18%; Kp [17]: 0.1; fraction unbound [18]: 0.31; LED [19]: 20 mg/kg; Cmax [20]: 1100 ng/mL; Ki [21]: > 1000 nM
CCN/C(=N\S(=O)(=O)c1cccc(OC)c1)N1CC2(C=N1)CCCC2	97.1	126	35.2	3.2	–	–	–
CCN/C(=N\S(=O)(=O)c1ccc2c(c1)NCC2)N1CC(CC)C=N1 (stereo not given)	399	> 1000	36.5	1.8	–	–	–
CCN/C(=N\S(=O)(=O)c1ccc2[nH]ccc2c1)N1CC2(C=N1)CCCC2	4.8	0.316	–	–	87	11	–
CCN/C(=N\S(=O)(=O)c1ccc(N)cc1)N1CC(CC)C=N1 (stereo not given)	7.2	3.98	31.6	2.4	34	4	–
CCN/C(=N\S(=O)(=O)c1ccc2[nH]c(C(F)(F)F)cc2c1)N1CC(C)(C)C=N1	160	> 1000	–	–	87	22	–
CCN/C(=N\S(=O)(=O)c1ccc(N)cc1)N1CC(C)(C)C=N1	20.6	–	31.6	3	20	< 1.4	–
CCN/C(=N\S(=O)(=O)c1ccc2[nH]ccc2c1)N1CC2(C=N1)CCNCC2	11.6	–	–	–	–	1	–
CCN/C(=N\S(=O)(=O)c1ccc(N)cc1)N1CC2(C=N1)CCCCC2	7.1	5.01	36.5	3.3	53	17	–
CCN/C(=N\S(=O)(=O)c1ccc(N)c(Cl)c1)N1CC2(C=N1)CCCC2	1.8	–	38.1	–	–	27	–
CCN/C(=N\S(=O)(=O)c1cccc(Cl)c1)N1CC(C)(C)C=N1	–	–	41	–	–	–	–
CCN/C(=N\S(=O)(=O)c1cccc(Cl)c1)N1N=CCC1c1ccc(O)cc1 (stereo not given)	251	> 1000	34.9	4.9	–	–	–
CCN/C(=N\S(=O)(=O)c1ccc(N)c(Cl)c1)N1CC(CC)C=N1 (stereo not given)	1.5	0.794	38.5	1.6	87	10	–
CCN/C(=N\S(=O)(=O)c1cc(O)cc(Cl)c1)N1CC2(C=N1)CCCC2	6.1	0.0501	–	–	–	107	–
CCN/C(=N\S(=O)(=O)c1cc(Cl)cc(OC)c1)N1CC2(C=N1)CCCC2	47.5	63.1	–	–	–	–	–
CCN/C(=N\S(=O)(=O)c1ccc(NC(C)=O)c(Cl)c1)N1CC(CC)C=N1 (stereo not given)	8.7	10	34.4	2	–	–	–
CCN/C(=N\S(=O)(=O)c1cccc(N)c1)N1CC2(C=N1)CCCC2	97.2	100	35.7	3.2	–	–	–
CCN/C(=N\S(=O)(=O)c1ccccc1)N1CC(CC)C=N1 (stereo not given)	–	–	38.2	1.1	92	15	–
CCN/C(=N\S(=O)(=O)c1ccc2c(c1)CCN2)N1CC2(C=N1)CCCC2	25	5.01	36.5	2.6	–	–	–
CCN/C(=N\S(=O)(=O)c1ccc(O)cc1)N1CC2(C=N1)CCCC2	5.8	3.16	32	5.9	42	21	–
CCN/C(=N\S(=O)(=O)c1ccc(N)cc1)N1CC2(C=N1)CCNCC2	14.2	–	0.3	–	5	1	–
CCN/C(=N\S(=O)(=O)c1ccc(OC)c(Cl)c1)N1CC2(C=N1)CCCC2	> 1000	> 1000	39.4	1.3	–	–	–
CCN/C(=N\S(=O)(=O)c1ccc(OC)cc1)N1CC2(C=N1)CCCC2	210	> 1000	40.4	1.2	–	–	–
CCN/C(=N\S(=O)(=O)c1ccc(O)c(Cl)c1)N1CC2(C=N1)CCCC2	14.6	10	20.5	2.4	66	34	–
